“Also recorded” adds a separate entry of the source.
Legend:
NALM6 cells = assay: Cell death assay (Presto Blue, 72 h) with dex plus inhibitor; assay type: cell-based, human; conditions: NALM-6, 16 nM Alisertib, 72 h
Procedure: Cells were plated in CellStar low evaporation lid 96-well round-bottom plate at a density of 100,000 cells/ml. Directly after plating, cells were treated in triplicate with serial dilutions of dexamethasone or vehicle control (0.1% ethanol). After 72 h, cell viability of each well was analyzed in duplicate using the Presto Blue Assay Reagent (Life Technologies). Fluorescence was measured and data were analyzed with Prism6 software.
FIGS. 40A, 40B, 40C, 40D-1, 40D-2, 40D-3, and 40D-4 show Aurora kinase B inhibitors sensitizing NALM6 cells to GC-induced cell death. As shown in FIGS. 40A and 40B, NALM6 cells were treated with the indicated dex concentration in addition to 0.75 μM ZM447439 (FIG. 40A), 16 nM AZD2811 (FIG. 40B), or equivalent volume of vehicle DMSO for 72 h, and cell survival was measured by a fluorescence metabolic assay. In each condition, the value measured with dex was normalized to the fluorescence value measured with ethanol. Percentage of survival is shown as the mean±SEM of 4 independent experiments and p-values for individual dex concentrations were calculated using a paired t-test. *p≤0.05, **p≤0.01, * * *p≤0.001. F-test comparing the two curves: p≤0.001. Insets show the EC50s that were calculated as the concentration at which half the cells remained alive, compare to vehicle controls. Error bars depict the SEM of 4 independent experiments and p-values were calculated to compare AURKB inhibitor treatment to DMSO using a paired t-test ** p≤0.01, * * *p≤0.001. […] The indicated proteins were then examined by immunoblot. As shown in FIGS. 40D-1, 40D-2, 40D-3, and 40D-4, NALM6 cells pre-treated with AZD2811 (16 nM) or DMSO for 24 h, were then treated for 8 h with 100 nM dex or ethanol. mRNA levels for the indicated GR target genes were measured by RT-qPCR and normalized to β-actin mRNA levels.
FIGS. 48A, 48B, 48C, 48D, 48E, and 48F show the effect of AURKB inhibitors on EHMT2 phosphorylation and dex-induced cell death. […] In each condition, the value measured with dex was normalized to the fluorescence value measured with ethanol. Percentage of survival is shown as the mean±SEM of 4 independent experiments and p-values for individual dex concentrations were calculated using a paired t-test. *p≤0.05, **p≤0.01, * * *p≤0.001. F-test comparing the two curves: p≤0.001. EC50s were calculated as the concentration at which half the cells remained alive, compare to vehicle controls. Error bars depict the SEM of 4 independent experiments and p-value was calculated to compare ZM treatment to DMSO using a paired t-test **p≤0.01, * * *p≤0.001. […] EC50s were calculated as the concentration at which half the cells remained alive, compare to vehicle controls. Error bars depict the SEM of 4 independent experiments and p-value was calculated to compare alisertib treatment to DMSO using a paired t-test. […] (E-F) RCH-ACV cells were treated with the indicated dex concentration in addition to 0.75 μM ZM447439 (FIG. 48E), 16 nM AZD2811 (FIG. 48F), or DMSO for 72 h, and cell survival was measured by a fluorescence metabolic assay. In each condition, the value measured with dex was normalized to the fluorescence value measured with ethanol. Percentage of survival is shown as the mean±SEM of 5 individual experiments and the p-value for each dex concentration was calculated using a paired t-test. *p≤0.05, **p≤0.01, * * *p≤0.001. F-test comparing the two curves: p≤0.001.
FIGS. 55A, 55B, and 55C show JIB-04 enhances GC-induced death of B-ALL cell line NALM6.

hG9a = molecular target: T1, hG9a (Homo sapiens, UniProt Q96KQ7); assay: Methylation of HA-hG9a in Cos-7 cells (pan met-K immunoprecipitation/immunoblot); assay type: cell-based, African green monkey; conditions: Cos-7 cells, 24 h
T1 construct: transfected with a plasmid encoding full length HA-hG9a and treated with 2 μM UNC0646; expressed in transfected cells; host or cells: Cos-7
T1 sequence (Q96KQ7 1-1210): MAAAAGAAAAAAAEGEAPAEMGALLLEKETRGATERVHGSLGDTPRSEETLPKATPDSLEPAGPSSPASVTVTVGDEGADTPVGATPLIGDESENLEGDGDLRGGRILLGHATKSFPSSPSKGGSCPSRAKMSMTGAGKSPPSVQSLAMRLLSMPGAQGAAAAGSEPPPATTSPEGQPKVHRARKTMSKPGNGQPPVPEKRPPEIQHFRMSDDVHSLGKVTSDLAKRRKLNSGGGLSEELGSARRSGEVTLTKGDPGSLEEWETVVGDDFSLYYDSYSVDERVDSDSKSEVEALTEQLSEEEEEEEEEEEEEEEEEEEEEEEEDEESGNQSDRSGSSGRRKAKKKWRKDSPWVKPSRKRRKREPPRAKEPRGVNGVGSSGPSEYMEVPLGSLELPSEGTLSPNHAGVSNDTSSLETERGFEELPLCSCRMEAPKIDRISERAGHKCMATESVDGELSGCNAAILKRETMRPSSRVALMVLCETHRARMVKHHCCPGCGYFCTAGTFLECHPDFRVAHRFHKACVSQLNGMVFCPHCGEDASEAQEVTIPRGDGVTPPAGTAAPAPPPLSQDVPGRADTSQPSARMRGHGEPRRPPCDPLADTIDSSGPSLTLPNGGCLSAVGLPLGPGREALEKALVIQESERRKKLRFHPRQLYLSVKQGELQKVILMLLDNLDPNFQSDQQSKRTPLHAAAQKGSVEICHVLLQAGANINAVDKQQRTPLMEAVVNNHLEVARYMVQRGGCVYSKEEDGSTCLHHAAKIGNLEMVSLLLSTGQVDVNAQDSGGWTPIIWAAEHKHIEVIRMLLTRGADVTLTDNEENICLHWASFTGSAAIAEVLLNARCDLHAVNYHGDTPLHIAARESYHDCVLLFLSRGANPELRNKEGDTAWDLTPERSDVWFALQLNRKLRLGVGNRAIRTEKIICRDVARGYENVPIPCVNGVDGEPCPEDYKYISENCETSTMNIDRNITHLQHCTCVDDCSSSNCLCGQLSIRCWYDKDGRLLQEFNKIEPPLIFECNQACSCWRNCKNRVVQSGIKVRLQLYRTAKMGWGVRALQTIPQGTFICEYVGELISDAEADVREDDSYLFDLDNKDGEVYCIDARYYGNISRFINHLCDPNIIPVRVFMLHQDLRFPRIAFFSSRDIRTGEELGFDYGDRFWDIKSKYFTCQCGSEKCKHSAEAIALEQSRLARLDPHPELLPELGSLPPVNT
Procedure: Cells were transiently transfected (where indicated) using Lipofectamine 2000 (Invitrogen) with 5 μg each of the indicated plasmids according to the manufacturer's protocol. […] Protein extracts were incubated with 1 μg of the indicated primary antibodies overnight at 4° C. with shaking. Protein A/G Plus Agarose (Santa Cruz sc-2003) beads were added and the mixture was incubated 2 hr at 4° C. The immunoprecipitates were separated on SDS-PAGE. Immunoblotting was conducted with primary antibodies against HA epitope (3F10 Roche Applied Science); G9a (G6919), FLAG (F1804), (3-actin (A5441), or GAPDH (G9545) from Sigma; aurora kinase B (ab2254), HP1γ (ab10480), HP1γ (ab56978), phospho-593-HP1γ (ab45270) or pan methyllysine (ab23366) from Abcam; GR (sc-8992) from Santa Cruz; GLP (09-078), or pan phospho-threonine (AB1607) from Millipore; phospho-S211-GR (#4161), H3K9me3 (#13969), H3S10ph (#53348), Histone H3 (#4499) from Cell signaling; or E-cadherin (610182) from BD transduction laboratories. Secondary antibodies from Santa Cruz Biotechnology (anti-rat) and Promega (anti-rabbit and anti-mouse) were used for chemiluminescence detection using Super Signal West Dura (Thermo Scientific) for proteins with low expression levels and ECL prime detection reagent (Amersham) for all other proteins according to the manufacturers' instructions. In immunoprecipitation experiments 3% of the input of each sample was analyzed by immunoblot using the antibodies listed.
Lysates were immunoprecipitated (IP) with pan met-K antibody and immunoblotted with HA antibody (top), or the usage of the two antibodies was reversed (bottom). Expression of HA-tagged proteins and β-actin (loading control) in the unfractionated extracts is shown at the bottom (Input). For FIG. 17D, Cos-7 cells were transfected with a plasmid encoding full length HA-hG9a and treated with 2 μM UNC0646 or vehicle DMSO for 24 h. Lysates were immunoprecipitated with pan met-K antibody and immunoblotted with HA antibody (top), or the usage of the two antibodies was reversed (bottom).
Lysates were immunoprecipitated with pan met-K antibody and immunoblotted with HA antibody (top).

SMILES: COc1cc(Nc2ncc3c(n2)-c2ccc(Cl)cc2C(c2c(F)cccc2OC)=NC3)ccc1C(=O)O [Alisertib]
- cell survival with dex (NALM6 cells): not significant; also recorded: did not have any effect

SMILES: Nc1ncnc2c1ncn2C(C=O)OC(C=O)CO (stereo not drawn) [Adox, adenosine dialdehyde]
- pan-methyllysine antibody signal on wild type hG9a (hG9a; 40 μM): strongly decreased

SMILES: COc1cc2c(NC3CCN(C(C)C)CC3)nc(N3CCC(F)(F)CC3)nc2cc1OCCCN1CCCC1 [UNC0642]
- pan-methyllysine antibody signal on wild type hG9a (hG9a; 2 μM inhibitor): strongly decreased
